Ends that are not written are not given here.
Columns and labels:
[1] = test system: SARS-CoV-2; test: Case reports: subcutaneous Ezrin peptide 1 in patients with COVID-19; assay type: in vivo, humans
[2] = high dosages of 50 mg per kg body weight per day or higher; no test or source given; cited from earlier work
[3] = test system: J-96 Human Cell Line; conditions: cell cultures; R. Ataullakhanov et al. 2005; cited from earlier work

TEKKRRETVEREKE [Ezrin peptide 1, NH2_Thr-Glu-Lys-Lys-Arg-Arg-Glu-Thr-Val-Glu-Arg-Glu-Lys-Glu_COOH]
Course of Disease (symptoms) ([1]; Example 1, patient, 0.2 mg s.c. daily, 15.03.2020, 2nd administration): increasing symptoms
Course of Disease (symptoms) ([1]; Example 1, 0.2 mg s.c. daily, 16.03.2020, 3rd administration): increasing symptoms with strong eye pain
Course of Disease (symptoms) ([1]; Example 1, 0.2 mg s.c. daily, 17.03.2020, 4th administration): increasing symptoms with more cough
Course of Disease (symptoms) ([1]; Example 1, 0.2 mg s.c. daily, 18.03.2020, 5th administration): significant signs of recovery, no eye pain, decreasing fever
Course of Disease (symptoms) ([1]; Example 1, 0.2 mg s.c. daily, 19.03.2020, 6th administration): significant signs of recovery, normal body temperature, no fatigue
Course of Disease (symptoms) ([1]; Example 1, 0.2 mg s.c. daily, 20.03.2020, 7th administration): return of taste, good general condition
Course of Disease (symptoms) ([1]; Example 1, 0.2 mg s.c. daily, 21.03.2020, 8th administration): no signs of illness anymore
course of the disease (duration) ([1]; Example 1, compared with the course expected for patients of this risk group): significantly shorter
severity of symptoms after administration ([1]; Example 1, compared with what is expected in a patient of this risk group): significantly lower
body temperature ([1]; Example 2, patient, 2 mg s.c. per dose, 25.04.2020 in the morning, second dose): 37.5 °C
body temperature ([1]; Example 2, 2 mg s.c., 25.04.2020 in the evening): 39.0 °C
Course of Disease (symptoms) ([1]; Example 2, 2 mg s.c., 25.04.2020, second dose): still general weakness, shortness of breath, cough, loss of appetite
body temperature ([1]; Example 2, 2 mg s.c., 26.04.2020 in the evening): 37.5 °C
Course of Disease (symptoms) ([1]; Example 2, 2 mg s.c., 26.04.2020, third administration): Still loss of appetite, slight cough
body temperature ([1]; Example 2, 2 mg s.c., 27.04.2020): 37.4 °C
Course of Disease (symptoms) ([1]; Example 2, 2 mg s.c., 27.04.2020, fourth dose): Slight cough, slight headache
body temperature ([1]; Example 2, 2 mg s.c., 28.04.2020): 37.3 °C
Course of Disease (symptoms) ([1]; Example 2, 2 mg s.c., 28.04.2020, fifth administration): Only slight pain of touching the scalp, still slight weakness
Course of Disease (symptoms) ([1]; Example 2, 2 mg s.c., 30.04.2020, sixth administration): Significant improvement of clinical symptoms, normal temperature
Course of Disease (symptoms) ([1]; Example 2, 01. to 04.05.2020, after six doses, antibiotic coverage due to increased CRP level): taste completely returned, no more cough, no more fever, clinical well-being
Course of Disease (symptoms) ([1]; Example 3, patient, 2 mg/d then 0.2 mg/d for four days s.c., 25.12.2020 (therapy begun 23.12.2020)): significant improvement of cough and general condition
Course of Disease (symptoms) ([1]; Example 3, after completion of HEP-1 therapy): No further symptoms
Course of Disease (symptoms) ([1]; Example 4, patient, 2 mg/d for two days then 0.2 mg/d for four days s.c., 25.12.2020 (therapy begun 23.12.2020)): significant improvement of cough and general condition
Course of Disease (symptoms) ([1]; Example 4, after completion of HEP-1 therapy): No further symptoms
Course of Disease (symptoms) ([1]; Example 5, patient, 2 mg/d for two days then 0,2 mg/d for four days s.c., 26.12.2020 (therapy begun 23.12.2020)): significant improvement of symptoms
Course of Disease (symptoms) ([1]; Example 5, after completion of the initial HEP-1 therapy): No further symptoms after completion of HEP-1 therapy until 13.01.2021, then severe shortness of breath
Course of Disease (shortness of breath) ([1]; Example 5, after subsequent 0,2 mg/d s.c. for fourteen days from 15.01.2021): No further shortness of breath
Course of Disease (symptoms) ([1]; Example 6, patient, 0.2 mg/d s.c. for ten days from 10.12.2020, 14.12.2020): significant improvement of symptoms
Course of Disease (symptoms) ([1]; Example 6, 0.2 mg/d s.c. for ten days, 20.12.2020): complete recovery of symptoms
toxicity [2]: not toxic
anti-viral effect [3]: has shown an anti-viral effect

From patent EP4125996B1, “EZRIN PEPTIDE 1 FOR USE IN A METHOD OF TREATING COVID-19” (priority 2020, dated 2024)
